Measured values as given in PMC12474041 (Toxins, 2025).
Read-outs that look alike come from different tables or passages of the source. Bridge positions count the residues as written; N and C are the ends.

Experiments:
[1] = cited from earlier work
patients with NDM = settings: cited from earlier work
[2] = system: DIII S6 and DIV S6 of the sodium channel pore domain; settings: cited from earlier work
Nav1.4 [3] = biological target: T1, Nav1.4 (Homo sapiens, UniProt P35499); design: expressed in transfected cells; host or cells: HEK cells; settings: cited from earlier work
T1 sequence (P35499 whole entry): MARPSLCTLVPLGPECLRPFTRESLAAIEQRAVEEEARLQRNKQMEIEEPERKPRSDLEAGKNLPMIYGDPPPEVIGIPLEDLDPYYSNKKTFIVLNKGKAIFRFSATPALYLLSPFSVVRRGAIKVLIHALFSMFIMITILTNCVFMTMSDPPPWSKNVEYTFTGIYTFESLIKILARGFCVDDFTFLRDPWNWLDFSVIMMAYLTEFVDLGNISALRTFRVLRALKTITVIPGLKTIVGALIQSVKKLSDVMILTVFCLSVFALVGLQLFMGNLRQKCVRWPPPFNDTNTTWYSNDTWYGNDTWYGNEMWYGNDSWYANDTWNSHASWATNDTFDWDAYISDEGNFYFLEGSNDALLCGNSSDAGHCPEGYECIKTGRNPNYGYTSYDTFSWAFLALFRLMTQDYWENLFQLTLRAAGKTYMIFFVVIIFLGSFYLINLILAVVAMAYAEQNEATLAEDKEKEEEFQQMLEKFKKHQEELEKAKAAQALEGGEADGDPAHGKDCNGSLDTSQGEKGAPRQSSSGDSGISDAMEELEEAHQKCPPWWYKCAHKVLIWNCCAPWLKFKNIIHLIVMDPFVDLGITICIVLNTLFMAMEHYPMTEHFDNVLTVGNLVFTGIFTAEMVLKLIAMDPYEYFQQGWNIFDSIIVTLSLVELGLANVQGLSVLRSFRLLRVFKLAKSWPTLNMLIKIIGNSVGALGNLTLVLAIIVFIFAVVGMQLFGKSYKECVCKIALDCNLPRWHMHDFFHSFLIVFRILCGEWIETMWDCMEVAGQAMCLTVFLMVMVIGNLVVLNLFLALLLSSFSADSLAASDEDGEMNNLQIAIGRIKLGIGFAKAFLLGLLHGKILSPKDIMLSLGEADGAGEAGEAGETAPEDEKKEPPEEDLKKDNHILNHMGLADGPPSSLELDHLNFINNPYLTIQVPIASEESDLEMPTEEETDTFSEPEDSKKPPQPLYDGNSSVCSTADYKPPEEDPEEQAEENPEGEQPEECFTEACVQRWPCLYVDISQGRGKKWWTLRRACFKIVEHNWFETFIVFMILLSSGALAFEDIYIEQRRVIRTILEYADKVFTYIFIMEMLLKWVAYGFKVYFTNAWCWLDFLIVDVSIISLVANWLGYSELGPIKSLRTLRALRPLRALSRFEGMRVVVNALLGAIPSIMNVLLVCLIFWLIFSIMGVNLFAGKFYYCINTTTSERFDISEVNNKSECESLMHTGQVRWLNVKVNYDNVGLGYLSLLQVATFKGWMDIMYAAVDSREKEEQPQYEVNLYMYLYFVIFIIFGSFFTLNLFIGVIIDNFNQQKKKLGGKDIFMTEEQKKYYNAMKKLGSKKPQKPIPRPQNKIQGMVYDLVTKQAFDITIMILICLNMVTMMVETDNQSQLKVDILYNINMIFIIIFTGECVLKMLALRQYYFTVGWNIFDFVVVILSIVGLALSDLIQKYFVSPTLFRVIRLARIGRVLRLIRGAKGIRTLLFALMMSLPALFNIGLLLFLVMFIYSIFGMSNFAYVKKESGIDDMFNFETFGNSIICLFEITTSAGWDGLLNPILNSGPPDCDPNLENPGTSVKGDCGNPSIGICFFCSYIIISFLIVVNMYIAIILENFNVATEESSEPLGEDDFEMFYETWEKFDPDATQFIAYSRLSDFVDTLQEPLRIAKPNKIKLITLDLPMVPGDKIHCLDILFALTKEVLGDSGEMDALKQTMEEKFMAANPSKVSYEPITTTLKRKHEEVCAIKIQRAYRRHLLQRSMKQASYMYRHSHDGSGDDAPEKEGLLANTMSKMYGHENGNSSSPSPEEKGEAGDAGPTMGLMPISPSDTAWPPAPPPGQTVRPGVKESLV

Nav1.5 [4] = settings: cited from earlier work
Kv1.3 = assay: Whole-cell patch clamp, Kv1.3 in transfected HEK cells; settings: 50 μM, room temperature, currents evoked at 0 mV, held at −80 mV
Experimental: (§1) Plasmids containing sodium channels or potassium channels were transfected into HEK cells (gifted from Rong’s lab at Hunan Normal University, Changsha, China [32]) using Lipofectamine 2000. After 24 h, whole-cell patch clamp recordings were made at room temperature. Using a drawn borosilicate glass electrode (resistance 3–5 MΩ) filled with intracellular solution, the current of the transfected cells was assessed using the MultiClamp 700B amplifier (Molecular Devices, Sunnyvale, America) and pCLAMP 10 software. We set the clamping voltage to −80 mV and the stimulation voltage to 0 mV.
(§2) The extracellular solution used to record the sodium ion channels included the following components (in mM): 150 NaCl, 2 KCl, 1.5 CaCl2, 1 MgCl2, and 10 HEPES, and the pH was adjusted to 7.4 with NaOH. To record the potassium ion channel, the extracellular solution contained (in mM) 140 NaCl, 2 KCl, 1.5 CaCl2, 1 MgCl2, and 10 HEPES, and the pH was adjusted to 7.4 using NaOH. The intracellular solution that recorded the sodium ion channel currents contained 10 mM NaCl, 10 mM EGTA, 135 mM CsCl, and 10 mM HEPES, and the pH was adjusted to 7.3 with CsOH. To record the potassium ion channel currents, the intracellular solution contained 10 mM EGTA, 140 mM KCl, 2.5 mM MgCl2, and 10 mM HEPES, and the pH was adjusted to 7.4 using NaOH.

Kv1.4 = assay: Whole-cell patch clamp, Kv1.4 in transfected HEK cells; settings: 50 μM, room temperature, currents evoked at 0 mV, held at −80 mV
Experimental: as §1, §2

Nav1.4 [5] = biological target: T1, Nav1.4; assay: Whole-cell patch clamp, Nav1.4 in transfected HEK cells
Experimental: as §1, §2

Nav1.5 [6] = assay: Whole-cell patch clamp, Nav1.5 in transfected HEK cells; settings: room temperature, currents evoked at 0 mV, held at −80 mV
Experimental: as §1, §2

Nav1.7 = assay: Whole-cell patch clamp, Nav1.7 in transfected HEK cells; settings: room temperature, currents evoked at 0 mV, held at −80 mV
Experimental: as §1, §2

Kv4.2 = assay: Whole-cell patch clamp, Kv4.2 in transfected HEK cells; settings: 50 μM, room temperature, currents evoked at 0 mV, held at −80 mV
Experimental: as §1, §2

[7] = system: N-type (Cav2.2) calcium channels; settings: cited from earlier work
[8] = system: G-protein-coupled GABAB receptors; settings: cited from earlier work

Question: With `Cc1cccc(C)c1NC(=O)C(C)N` (stereo not drawn) [Tocainide, tocainide] as the molecule, how does the side effects ([1]; can be fatal) read?
Answer: anemia, agranulocytosis, pulmonary fibrosis, interstitial pneumonia, and pulmonary edema

Question: Which “efficacy in patients with NDM” value (patients with NDM) does the source give for `O=C(NCC1CCCCN1)c1cc(OCC(F)(F)F)ccc1OCC(F)(F)F` (stereo not drawn) [flecainide] here?
Answer: effective in some patients with NDM

Question: Which side effects ([1]; sensitivity of different patients varies greatly) does the source give for `Cc1cccc(C)c1OCC(C)N` (stereo not drawn) [mexiletine] here?
Answer: indigestion

Question: And the “effect on muscle stiffness” value (patients with NDM; patients with NDM)?
Answer: improving muscle stiffness in patients with NDM

Question: And the “binding site on sodium channel” value [2]?
Answer: binds to DIII S6 and DIV S6 of the sodium channel pore domain

Question: Which EC50 (Nav1.4 [3]) does the source give for ATX-II here?
Answer: 0.109 µM

Question: What about the EC50 (Nav1.5 [4]) of the same molecule?
Answer: 0.049 µM

Question: For “GEFINGDCELPKVVGPCRAGFRRYYYNSSSKRCEKFIYGGCRGNANNFHTLEECEKVCGVRS (disulfide 8-58, 17-41, 33-54 (inferred)) [Avd3i, U-actitoxin-Avd3i]”, which “effect on Kv1.3” value (Kv1.3) is on record?
Answer: no effect

Question: What about the “effect on Kv1.4” value (Kv1.4) of the same molecule?
Answer: no effect

Question: And the IC50 (Nav1.4 [5])?
Answer: 25.4 µM

Question: And the “inhibition of Nav1.4 channel at 50.0 μM” value (Nav1.4 [5]; 50.0 μM perfusion, transfected HEK cells, room temperature, holding −80 mV, stimulation 0 mV)?
Answer: suppressed

Question: What about the “concentration dependence of Nav1.4 inhibition” value (Nav1.4 [5]; transfected HEK cells, whole-cell patch clamp) of the same molecule?
Answer: concentration-dependent manner

Question: What about the “effect on Nav1.5” value (Nav1.5 [6]) of the same molecule?
Answer: did not inhibit

Question: And the “effect on Nav1.7” value (Nav1.7)?
Answer: did not inhibit

Question: And the “effect on Kv4.2” value (Kv4.2)?
Answer: no effect

Question: With Vc1.1 as the molecule, how does the “direct binding to Cav2.2” value [7] read?
Answer: do not directly bind

Question: And the “inhibition of Cav2.2 channel function” value [7]?
Answer: indirectly inhibit channel function

Question: And the “binding to GABAB receptors” value [8]?
Answer: binding to G-protein-coupled GABAB receptors
